What was measured:
Test in all cases: relative viability (nuclei count vs DMSO), 5 days (fraction); higher = more cells survive
AZD1208 + Decitabine = compound: N[C@@H]1CCCN(c2c(/C=C3\SC(=O)NC3=O)cccc2-c2ccccc2)C1 [AZD1208] + Nc1ncn([C@H]2C[C@H](O)[C@@H](CO)O2)c(=O)n1 [Decitabine] (partner 2 µM)
In short: (§1)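 Relative viability is defined as nuclei in treated wells over nuclei in vehicle wells. Duplicate plates were run and medians reported. Lung cancer cell lines in 1536-well plates were dosed by pin tool one day after seeding, with one drug or with a fixed anchor-drug dose plus five library-drug doses (not always all listed) in √10 steps, and nuclei were counted after 5 days.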

AZD1208 + Vorinostat = compound: N[C@@H]1CCCN(c2c(/C=C3\SC(=O)NC3=O)cccc2-c2ccccc2)C1 [AZD1208] + O=C(CCCCCCC(=O)Nc1ccccc1)NO [Vorinostat] (partner 1 µM)
In short: as §1

AZD1208 + Dasatinib = compound: N[C@@H]1CCCN(c2c(/C=C3\SC(=O)NC3=O)cccc2-c2ccccc2)C1 [AZD1208] + Cc1nc(Nc2ncc(C(=O)Nc3c(C)cccc3Cl)s2)cc(N2CCN(CCO)CC2)n1 [Dasatinib] (partner 0.075 µM)
In short: as §1

XMD14-99 + Vorinostat = compound: CN1CCN(CC1)C2=CC(=C(C=C2)NC3=NC(=C(S3)C(=O)C4=C(C=CC=C4Cl)Cl)N)OC [XMD14-99] + O=C(CCCCCCC(=O)Nc1ccccc1)NO [Vorinostat] (partner 1 µM)
In short: as §1

Cell Line | relative viability (AZD1208 + Decitabine; first compound 0.08 µM) | relative viability (AZD1208 + Decitabine; first compound 0.253 µM) | relative viability (AZD1208 + Decitabine; first compound 0.8 µM) | relative viability (AZD1208 + Decitabine; first compound 2.53 µM) | relative viability (AZD1208 + Decitabine; first compound 8 µM) | relative viability (AZD1208 + Vorinostat; first compound 0.08 µM) | relative viability (AZD1208 + Vorinostat; first compound 0.253 µM) | relative viability (AZD1208 + Vorinostat; first compound 0.8 µM) | relative viability (AZD1208 + Vorinostat; first compound 2.53 µM) | relative viability (AZD1208 + Vorinostat; first compound 8 µM) | relative viability (AZD1208 + Dasatinib; first compound 0.08 µM) | relative viability (AZD1208 + Dasatinib; first compound 0.253 µM) | relative viability (AZD1208 + Dasatinib; first compound 0.8 µM) | relative viability (AZD1208 + Dasatinib; first compound 2.53 µM) | relative viability (AZD1208 + Dasatinib; first compound 8 µM) | relative viability (XMD14-99 + Vorinostat; first compound 0.08 µM) | relative viability (XMD14-99 + Vorinostat; first compound 0.8 µM) | relative viability (XMD14-99 + Vorinostat; first compound 2.53 µM) | relative viability (XMD14-99 + Vorinostat; first compound 8 µM)
NCI-H2342 | 0.772 | 0.736 | 0.595 | 0.674 | 0.581 | 0.831 | 0.702 | 0.604 | 0.799 | 0.597 | 0.284 | 0.354 | 0.28 | 0.3 | 0.267 | 0.747 | 0.703 | 0.872 | 0.989
SK-MES-1 | 0.373 | 0.352 | 0.33 | 0.364 | 0.301 | 1.07 | 1.14 | 1.07 | 1.01 | 1.02 | 0.336 | 0.336 | 0.284 | 0.341 | 0.306 | 1.08 | 1.08 | 1.05 | 0.657
NCI-H1993 | 0.526 | 0.586 | 0.613 | 0.5 | 0.468 | 0.584 | 0.63 | 0.726 | 0.548 | 0.501 | 0.507 | 0.519 | 0.54 | 0.536 | 0.459 | 0.595 | 0.889 | 0.793 | 0.714
HCC-366 | 0.315 | 0.354 | 0.312 | 0.386 | 0.333 | 0.373 | 0.473 | 0.391 | 0.36 | 0.291 | 0.625 | 0.64 | 0.479 | 0.493 | 0.287 | 0.42 | 0.324 | 0.296 | 0.218
201T | 0.886 | 0.868 | 0.855 | 0.97 | 0.893 | 0.961 | 1.01 | 0.967 | 0.949 | 0.952 | 0.579 | 0.557 | 0.522 | 0.504 | 0.51 | 0.962 | 0.93 | 0.948 | 0.815
HCC-827 | 0.435 | 0.327 | 0.281 | 0.341 | 0.335 | 0.991 | 0.904 | 0.861 | 0.839 | 0.78 | 0.286 | 0.297 | 0.263 | 0.255 | 0.247 | 0.929 | 0.571 | 0.74 | 0.701
NCI-H650 | 0.284 | 0.297 | 0.352 | 0.31 | 0.343 | 0.436 | 0.379 | 0.47 | 0.414 | 0.351 | 0.509 | 0.451 | 0.385 | 0.379 | 0.338 | 0.348 | 0.455 | 0.439 | 0.411
NCI-H2085 | 0.555 | 0.491 | 0.587 | 0.544 | 0.449 | 0.796 | 0.821 | 0.749 | 0.82 | 0.751 | 0.27 | 0.217 | 0.306 | 0.218 | 0.262 | 0.768 | 0.788 | 0.768 | 0.613
NCI-H596 | 0.847 | 1.01 | 0.901 | 0.902 | 0.756 | 0.628 | 0.632 | 0.558 | 0.661 | 0.48 | 0.545 | 0.586 | 0.524 | 0.524 | 0.462 | 0.635 | 0.645 | 0.794 | 0.536
SK-LU-1 | 0.586 | 0.621 | 0.629 | 0.622 | 0.511 | 0.776 | 0.785 | 0.73 | 0.783 | 0.736 | 0.162 | 0.14 | 0.154 | 0.168 | 0.133 | 0.735 | 0.74 | 0.813 | 0.479
A-427 | 0.541 | 0.568 | 0.528 | 0.508 | 0.448 | 0.873 | 0.913 | 0.836 | 0.906 | 0.828 | 0.553 | 0.644 | 0.531 | 0.659 | 0.431 | 0.882 | 0.832 | 0.689 | 0.612
NCI-H460 | 0.458 | 0.604 | 0.465 | 0.495 | 0.516 | 0.731 | 0.858 | 0.732 | 0.708 | 0.737 | 0.54 | 0.562 | 0.473 | 0.365 | 0.334 | 0.735 | 0.693 | 0.625 | 0.49
NCI-H1792 | 0.624 | 0.538 |  | 0.505 | 0.468 |  |  |  |  |  | 0.722 | 0.595 | 0.647 | 0.675 | 0.55 |  |  |  | 
SW 1573 | 0.465 | 0.417 | 0.457 | 0.448 | 0.354 | 0.505 | 0.862 | 0.456 | 0.479 | 0.404 | 0.404 | 0.537 | 0.438 | 0.586 | 0.319 | 0.833 | 0.765 | 0.756 | 0.631
RERF-LC-KJ | 0.66 | 0.674 | 0.632 | 0.586 | 0.555 | 0.646 | 0.668 | 0.7 | 0.658 | 0.598 | 0.685 | 0.608 | 0.546 | 0.595 | 0.483 | 0.788 | 0.685 | 0.553 | 0.595
EMC-BAC-2 | 0.932 | 0.94 | 0.903 | 0.992 | 0.812 | 0.872 | 0.394 | 0.447 | 0.469 | 0.399 | 0.301 | 0.319 | 0.321 | 0.32 | 0.264 | 0.493 | 0.585 | 0.447 | 0.199
LK-2 | 0.316 | 0.291 | 0.23 | 0.274 | 0.195 | 0.329 | 0.322 | 0.255 | 0.302 | 0.247 | 0.273 | 0.224 | 0.17 | 0.167 | 0.178 | 0.364 | 0.396 | 0.548 | 0.462

From the supplement of paper PMC10307832
